These results are taken from ChEMBL document CHEMBL1949619, “Synthesis of potent oxindole CDK2 inhibitors” (Bioorg Med Chem, 2003).

The target of test [1] is Cyclin-dependent kinase 2/cyclin E1 (Homo sapiens, UniProt P24941). Nature of the test: Inhibition of human CDK2/CyclinE expressed in baculovirus insect cell system using Rb as substrate after 30 mins by scintillation counting.
For test [2], the system named is MDA-MB-435. Nature of the test: Antiproliferative activity against human MDA-MB-435 cells after 5 days by MTT assay. Type of test: functional, cell-based. The following applies: MDA-MB-435, 120 h.
Test [3] relates to RKO. Nature of the test: Antiproliferative activity against human RKO cells after 5 days by MTT assay. Type of test: functional, cell-based. The following applies: 120 h. On the technique in general: Formazan colour is commonly taken as a measure of viable cells.
Test [4] is described as follows: Cell cycle arrest in human 1043SK cells assessed as accumulation at G1 phase measuring reduction of BrdU incorporation of into cellular DNA by ELISA. Type of test: functional, cell-based.

A value given as a limit tells only on which side of the number the result lay.

For the molecule `COc1cc[nH]c1/C=C1\C(=O)Nc2ccccc21`, in test [1], the IC50 – broadly, the concentration that inhibits the measured activity by half – was found to be 5360 nM.
Regarding `COc1cc[nH]c1/C=C1\C(=O)Nc2ccc(F)cc21`, the IC50 is more than 30000 nM in test [2], 847 nM in test [1] and 11900 nM in test [3].
In the case of `COc1ccc2c(c1)/C(=C/c1[nH]ccc1OC)C(=O)N2`, the IC50 in test [2] worked out at 8080 nM; in test [1], 209 nM; in test [3] it was 3860 nM.
Regarding `COc1cc[nH]c1/C=C1\C(=O)Nc2ccc([N+](=O)[O-])cc21`, the results for the IC50 in test [2], in test [1] and in test [3] were 7460 nM, 39 nM and 692 nM, respectively.
Taken in the same sequence, the figures for `COc1cc[nH]c1/C=C1\C(=O)Nc2ccc([N+](=O)[O-])c(-n3ccnc3)c21` were more than 30000 nM, 1750 nM and 3920 nM.
`COc1cc[nH]c1/C=C1\C(=O)Nc2ccc([N+](=O)[O-])c(N3CCNC(C(N)=O)C3)c21` (centres undefined): the results for the half-maximal inhibitory concentration (IC50) in test [2], in test [1] and in test [3] were 1270 nM, 28 nM and 449 nM, respectively.
As to `COc1cc[nH]c1/C=C1\C(=O)Nc2ccc([N+](=O)[O-])c(N3CCCC(C(N)=O)C3)c21` (centres undefined), the values for the IC50 in test [2], in test [1] and in test [3] were 623 nM, 6 nM and 192 nM, respectively.
`COc1cc[nH]c1/C=C1\C(=O)Nc2ccc([N+](=O)[O-])c(N3CC[C@H](C(N)=O)C3)c21`: the IC50 in test [2] was 163 nM; in test [1], 5 nM; in test [3], 50 nM.
Consider `COc1cc[nH]c1/C=C1\C(=O)Nc2ccc([N+](=O)[O-])c(N3CC[C@@H](O)C3)c21`, for which the IC50 in test [2] amounted to 88 nM; in test [4], 830 nM; in test [1] it was 3 nM; in test [3], 32 nM.
Take `COc1cc[nH]c1/C=C1\C(=O)Nc2ccc([N+](=O)[O-])c(N3CC[C@H](O)C3)c21`: the IC50 in test [2] came to 104 nM; in test [1] it was 5 nM; in test [3], 37 nM.
The like results for `COc1cc[nH]c1/C=C1\C(=O)Nc2ccc([N+](=O)[O-])c(N3CCCC(O)C3)c21` (centres undefined) were, in that order, 250 nM, 2 nM and 105 nM.
The like results for `COc1cc[nH]c1/C=C1\C(=O)Nc2ccc([N+](=O)[O-])c(N3CCC(O)CC3)c21` were, in that order, 46 nM, 4 nM and less than 10 nM.
In the case of `COc1cc[nH]c1/C=C1\C(=O)Nc2ccc([N+](=O)[O-])c(N3CCCC(CO)C3)c21` (centres undefined), the IC50 was found to be 441 nM in test [2], 2 nM in test [1] and 124 nM in test [3].
With `COc1cc[nH]c1/C=C1\C(=O)Nc2ccc([N+](=O)[O-])c(N[C@H]3CC[C@H](O)CC3)c21`, the half-maximal inhibitory concentration (IC50) in test [2] turned out to be 8550 nM; in test [1], 6 nM; in test [3] it was 8040 nM.
With `COc1cc[nH]c1/C=C1\C(=O)Nc2ccc([N+](=O)[O-])c(NC3CCNCC3)c21`, the IC50 is 139 nM in test [2], 5 nM in test [1] and 24 nM in test [3].
As to `COc1cc[nH]c1/C=C1\C(=O)Nc2ccc([N+](=O)[O-])c(N3CCC(N)CC3)c21`, the values for the IC50 in test [2], in test [1] and in test [3] were less than 10 nM, 5 nM and less than 10 nM, respectively.
Consider `COc1cc[nH]c1/C=C1\C(=O)Nc2ccc([N+](=O)[O-])c(N3CC[C@@H](N)C3)c21`, for which the IC50 in test [2] was less than 10 nM; in test [1], 3 nM; in test [3], less than 10 nM.
In the case of `COc1cc[nH]c1/C=C1\C(=O)Nc2ccc([N+](=O)[O-])c(N3CC[C@@H](NC=O)C3)c21`, the IC50 in test [2] was determined as 33 nM; in test [1] it was 3 nM; in test [3], 32 nM.
On to `COc1cc[nH]c1/C=C1\C(=O)Nc2ccc([N+](=O)[O-])c(N[C@H]3CC[C@H](N)C3)c21` (racemic), for which the IC50 in test [2] was 61 nM; in test [1] it was 5 nM; in test [3], less than 15 nM.
Taken in the same sequence, the figures for `COc1cc[nH]c1/C=C1\C(=O)Nc2ccc([N+](=O)[O-])c(N[C@H]3CC[C@H](O)C3)c21` (racemic) were 1000 nM, 5 nM and 339 nM.
